Test results: US9765067B2, “Thiophen-2-yl-pyridin-2-yl-1H-pyrazole-4-carboxylic acid derivatives and the use thereof as soluble guanylate cyclase activators” (Novartis AG, priority 2014, dated 2017)

Biological target: T1, soluble guanylate cyclase (human GUCYA3/GUCYB3) overexpressed in CHO cells (Homo sapiens, UniProt Q02108+Q02153)
T1 construct: expressed in transfected cells
T1 sequence (Q02108 1-690 partner): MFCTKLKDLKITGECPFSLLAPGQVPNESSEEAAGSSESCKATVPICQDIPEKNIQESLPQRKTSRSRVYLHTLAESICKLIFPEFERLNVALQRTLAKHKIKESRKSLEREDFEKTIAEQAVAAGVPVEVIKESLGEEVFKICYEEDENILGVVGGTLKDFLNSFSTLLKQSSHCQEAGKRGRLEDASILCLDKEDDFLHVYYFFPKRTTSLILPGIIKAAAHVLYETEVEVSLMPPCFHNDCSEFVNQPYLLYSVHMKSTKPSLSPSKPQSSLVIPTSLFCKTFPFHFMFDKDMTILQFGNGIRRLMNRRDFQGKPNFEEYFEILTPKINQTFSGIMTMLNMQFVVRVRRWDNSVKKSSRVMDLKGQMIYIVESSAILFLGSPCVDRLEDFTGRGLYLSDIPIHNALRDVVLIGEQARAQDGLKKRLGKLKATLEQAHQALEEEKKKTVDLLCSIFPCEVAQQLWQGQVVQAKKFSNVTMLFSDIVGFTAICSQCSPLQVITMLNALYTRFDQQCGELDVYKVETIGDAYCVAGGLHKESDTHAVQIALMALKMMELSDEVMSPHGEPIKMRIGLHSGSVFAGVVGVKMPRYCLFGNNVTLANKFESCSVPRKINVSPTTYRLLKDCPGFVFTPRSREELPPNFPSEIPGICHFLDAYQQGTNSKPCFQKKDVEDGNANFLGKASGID
T1 sequence (Q02153 1-619): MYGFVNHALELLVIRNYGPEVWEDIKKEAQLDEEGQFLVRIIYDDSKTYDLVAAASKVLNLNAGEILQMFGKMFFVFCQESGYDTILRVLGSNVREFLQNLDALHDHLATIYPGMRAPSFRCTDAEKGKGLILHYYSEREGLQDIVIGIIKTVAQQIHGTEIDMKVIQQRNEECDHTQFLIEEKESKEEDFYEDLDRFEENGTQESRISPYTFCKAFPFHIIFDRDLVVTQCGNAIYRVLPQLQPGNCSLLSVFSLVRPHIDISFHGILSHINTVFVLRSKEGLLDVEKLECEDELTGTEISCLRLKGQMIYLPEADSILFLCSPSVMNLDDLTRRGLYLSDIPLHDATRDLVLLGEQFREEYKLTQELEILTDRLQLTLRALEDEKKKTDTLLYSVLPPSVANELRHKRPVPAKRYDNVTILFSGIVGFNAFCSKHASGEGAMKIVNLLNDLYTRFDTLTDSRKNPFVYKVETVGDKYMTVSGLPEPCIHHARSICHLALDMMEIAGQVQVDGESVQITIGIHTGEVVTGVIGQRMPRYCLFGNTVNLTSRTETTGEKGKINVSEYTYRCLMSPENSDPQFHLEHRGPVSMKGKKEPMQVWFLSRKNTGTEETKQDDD
Test: CHO cellular assay (cGMP production, HTRF)
Format: cell-based
Settings: CHO K1 clone 8E10 overexpressing human sGC, Cisbio HTRF, 1 h room temperature, 1 mM IBMX, 20 uM ODQ, minimum quantification limit 0.5 nM
Source text: Chinese hamster ovary (CHO) cells overexpressing soluble guanylate cyclase were generated to test the effect of sGC activators in a cellular context. Human cDNAs for GUCYA3 (RefSeq: NM_000856.3) and GUCYB3 (RefSeq: NM_000857.1) were amplified by PCR from a HUVEC (Human Umbilical Vein Endothelial Cells) cDNA library and cloned into mammalian expression vectors. CHO K1 cells (ATCC CCL-61) were transfected using Lipofectamine 2000 following manufacturer's instructions and stably expressing clones were identified by antibiotic selection. CHO GUCY clone 8E10 was used for subsequent experiments.
Cells were seeded at a density of 3000 cells/well in white 384-well proxyplates (Perkin Elmer) and incubated overnight, then the medium was removed and cells were washed with assay buffer (HBSS, 0.1% BSA, 1 mM IBMX, 20 uM ODQ). sGC activators were serially diluted in DMSO, then diluted in assay buffer prior to adding to cells (10 ul/well, final DMSO concentration 0.5%). Cells were incubated with compounds for 1 h room temperature, then assayed for cGMP production using Cisbio cGMP HTRF kit (62GM2PEC) according to manufacturer's instructions.
The EC50s are calculated based on the amount of cGMP interpolated from the standard curve, using a 4-parameter sigmoidal dose-response.

| SMILES | EC50 [nM] |
| --- | --- |
| O=C(O)c1cnn(-c2cccc(-c3sccc3COc3ccc4c(c3)CCN(Cc3ccccn3)C4)n2)c1C(F)(F)F [Example 23, 1-(6-(3-(((2-(Pyridin-2-ylmethyl)-1,2,3,4-tetrahydroisoquinolin-6-yl)oxy)methyl)thiophen-2-yl)pyridin-2-yl)-5-(trifluoromethyl)-1H-pyrazole-4-carboxylic acid] | 38 |
| Cc1cc(COc2ccc(C3CCN(C(=O)C4CC4)CC3)c(CO)c2)c(-c2cccc(-n3ncc(C(=O)O)c3C(F)(F)F)n2)s1 [Example 30, 1-(6-(3-((4-(1-(Cyclopropanecarbonyl)piperidin-4-yl)-3-(hydroxymethyl)phenoxy)methyl)-5-methylthiophen-2-yl)pyridin-2-yl)-5-(trifluoromethyl)-1H-pyrazole-4-carboxylic acid] | 61 |
| CCc1cc(COc2ccc(C3CCN(C(=O)C4CC4)CC3)cc2C)c(-c2cccc(-n3ncc(C(=O)O)c3C(F)(F)F)n2)s1 [Example 22-1, 1-(6-(3-((4-(1-(Cyclopropanecarbonyl)piperidin-4-yl)-2-methylphenoxy)methyl)-5-ethylthiophen-2-yl)pyridin-2-yl)-5-(trifluoromethyl)-1H-pyrazole-4-carboxylic acid] | 2 |
| CCC(=O)N1CCC(c2ccc(OCc3c(C(F)(F)F)csc3-c3cccc(-n4ncc(C(=O)O)c4C(F)(F)F)n3)c(C)c2)CC1 [Example 2-4, 1-(6-(3-((2-Methyl-4-(1-propionylpiperidin-4-yl)phenoxy)methyl)-4-(trifluoromethyl)thiophen-2-yl)pyridin-2-yl)-5-(trifluoromethyl)-1H-pyrazole-4-carboxylic acid] | ≤ 0.5 |
| CCc1cc(COc2ccc(C3CCN(CC(F)(F)F)CC3)cc2C)c(-c2cccc(-n3ncc(C(=O)O)c3C(F)(F)F)n2)s1 [Example 6-17, 1-(6-(5-Ethyl-3-((2-methyl-4-(1-(2,2,2-trifluoroethyl)piperidin-4-yl)phenoxy)methyl)thiophen-2-yl)pyridin-2-yl)-5-(trifluoromethyl)-1H-pyrazole-4-carboxylic acid] | 14 |
| Cc1cc(C2CCN(C(=O)C3COC(C)(C)O3)CC2)ccc1OCc1ccsc1-c1cccc(-n2ncc(C(=O)O)c2C(F)(F)F)n1 (racemic) [Example 12-6, (±)-1-(6-(3-((4-(1-(2,2-Dimethyl-1,3-dioxolane-4-carbonyl)piperidin-4-yl)-2-methylphenoxy)methyl)thiophen-2-yl)pyridin-2-yl)-5-(trifluoromethyl)-1H-pyrazole-4-carboxylic acid] | 48 |
| Cc1cc(CNc2ccc(C3CCN(C(=O)C4CC4)CC3)cc2)c(-c2cccc(-n3ncc(C(=O)O)c3C)n2)s1 [Example 16-3, 1-(6-(3-(((4-(1-(Cyclopropanecarbonyl)piperidin-4-yl)phenyl)amino)methyl)-5-methylthiophen-2-yl)pyridin-2-yl)-5-methyl-1H-pyrazole-4-carboxylic acid] | ≤ 0.5 |
| Cc1cc(C2CCN(CC3CC3)CC2)ccc1OCc1ccsc1-c1cccc(-n2ncc(C(=O)O)c2C(F)(F)F)n1 [Example 14-2, 1-(6-(3-((4-(1-(Cyclopropylmethyl)piperidin-4-yl)-2-methylphenoxy)methyl)thiophen-2-yl)pyridin-2-yl)-5-(trifluoromethyl)-1H-pyrazole-4-carboxylic acid] | 430 |
| Cc1csc(-c2cccc(-n3ncc(C(=O)O)c3C(F)(F)F)n2)c1CNc1ccc(C2CCN(C(=O)C3CC3)CC2)cc1 [Example 20-1, 1-(6-(3-(((4-(1-(Cyclopropanecarbonyl)piperidin-4-yl)phenyl)amino)methyl)-4-methylthiophen-2-yl)pyridin-2-yl)-5-(trifluoromethyl)-1H-pyrazole-4-carboxylic acid] | 12 |
| Cc1cc(CNc2ccc(C3CCN(C(=O)C4CC4)CC3)cc2C)c(-c2cccc(-n3ncc(C(=O)O)c3C)n2)s1 [Example 16-2, 1-(6-(3-(((4-(1-(Cyclopropanecarbonyl)piperidin-4-yl)-2-methylphenyl)amino)methyl)-5-methylthiophen-2-yl)pyridin-2-yl)-5-methyl-1H-pyrazole-4-carboxylic acid] | 1 |
| O=C(O)c1cnn(-c2cccc(-c3sccc3COc3ccc(C4CCN(CC(F)(F)F)CC4)cc3)n2)c1C(F)(F)F [Example 14-1, 1-(6-(3-((4-(1-(2,2,2-Trifluoroethyl)piperidin-4-yl)phenoxy)methyl)thiophen-2-yl)pyridin-2-yl)-5-(trifluoromethyl)-1H-pyrazole-4-carboxylic acid] | 12 |
| CCc1cc(COc2ccc(C3CCN(C(=O)OC)CC3)cc2C)c(-c2cccc(-n3ncc(C(=O)O)c3C(F)(F)F)n2)s1 [Example 4-3, 1-(6-(5-Ethyl-3-((4-(1-(methoxycarbonyl)piperidin-4-yl)-2-methylphenoxy)methyl)thiophen-2-yl)pyridin-2-yl)-5-(trifluoromethyl)-1H-pyrazole-4-carboxylic acid] | 5.5 |
| CCc1cc(NCc2cc(C)sc2-c2cccc(-n3ncc(C(=O)O)c3C(F)(F)F)n2)ccc1C1CCN(C(=O)C2CC2)CC1 [Example 24, 1-(6-(3-(((4-(1-(Cyclopropanecarbonyl)piperidin-4-yl)-3-ethylphenyl)amino)methyl)-5-methylthiophen-2-yl)pyridin-2-yl)-5-(trifluoromethyl)-1H-pyrazole-4-carboxylic acid] | 6 |
| Cc1cc(COc2ccc(C3CCN(C(=O)C4CC4)CC3)cc2C(F)(F)F)c(-c2cccc(-n3ncc(C(=O)O)c3C(F)(F)F)n2)s1 [Example 32, 1-(6-(3-((4-(1-(Cyclopropanecarbonyl)piperidin-4-yl)-2-(trifluoromethyl)phenoxy)methyl)-5-methylthiophen-2-yl)pyridin-2-yl)-5-(trifluoromethyl)-1H-pyrazole-4-carboxylic acid] | ≤ 0.5 |
| Cc1cc(C2CCN(CC(F)(F)F)CC2)ccc1OCc1ccsc1-c1cccc(-n2ncc(C(=O)O)c2C(F)(F)F)n1 [Example 13, 1-(6-(3-((2-Methyl-4-(1-(2,2,2-trifluoroethyl)piperidin-4-yl)phenoxy)methyl)thiophen-2-yl)pyridin-2-yl)-5-(trifluoromethyl)-1H-pyrazole-4-carboxylic acid] | 1 |
| Cc1cc(C2CCN(C(=O)CC3CC3)CC2)ccc1OCc1ccsc1-c1cccc(-n2ncc(C(=O)O)c2C(F)(F)F)n1 [Example 11, 1-(6-(3-((4-(1-(2-Cyclopropylacetyl)piperidin-4-yl)-2-methylphenoxy)methyl)thiophen-2-yl)pyridin-2-yl)-5-(trifluoromethyl)-1H-pyrazole-4-carboxylic acid] | 2 |
| CCC(=O)N1CCC(c2ccc(OCc3cc(C(C)C)sc3-c3cccc(-n4ncc(C(=O)O)c4C(F)(F)F)n3)c(C)c2)CC1 [Example 35-2, 1-(6-(5-Isopropyl-3-((2-methyl-4-(1-propionylpiperidin-4-yl)phenoxy)methyl)thiophen-2-yl)pyridin-2-yl)-5-(trifluoromethyl)-1H-pyrazole-4-carboxylic acid] | 678 |
| Cc1cc(C2CCN(C(=O)C3CC3)CC2)ccc1NCc1ccsc1-c1cccc(-n2ncc(C(=O)O)c2C(F)(F)F)n1 [Example 16-1, 1-(6-(3-(((4-(1-(Cyclopropanecarbonyl)piperidin-4-yl)-2-methylphenyl)amino)methyl)thiophen-2-yl)pyridin-2-yl)-5-(trifluoromethyl)-1H-pyrazole-4-carboxylic acid] | 8.8 |
